These results are taken from US20240344241A1, “PROTEINACEOUS MOLECULES AND USES THEREFOR” (THE UNIVERSITY OF QUEENSLAND, priority 2021, published 2024).

Molecules are shown by their SMILES. Bridge positions count the residues as written; N and C are the ends. Peptide text beside a SMILES is read from it.

For one assay, the target named is T1, bovine trypsin (Bos taurus, UniProt P00760).
T1 sequence (P00760 24-246): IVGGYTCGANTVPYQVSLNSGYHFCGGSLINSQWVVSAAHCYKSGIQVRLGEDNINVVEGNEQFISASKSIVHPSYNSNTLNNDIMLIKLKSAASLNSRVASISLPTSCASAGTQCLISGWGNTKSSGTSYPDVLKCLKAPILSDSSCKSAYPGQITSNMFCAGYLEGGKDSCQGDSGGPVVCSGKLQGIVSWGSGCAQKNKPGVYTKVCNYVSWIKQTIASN
Description: Surface plasmon resonance binding to trypsin. The note with it: for affinity for trypsin (in words): SPR.

In assay [1] the target is T2, Human β-FXIIa (Homo sapiens, UniProt P00748).
T2 construct: Human β-FXIIa was obtained from Molecular Innovations, together with human FXa, human FXIa, human α-thrombin, and human plasma kallikrein; purchased Molecular Innovations; host or cells: purified from human plasma
T2 sequence (P00748 373-615 limits assumed, other chains not shown): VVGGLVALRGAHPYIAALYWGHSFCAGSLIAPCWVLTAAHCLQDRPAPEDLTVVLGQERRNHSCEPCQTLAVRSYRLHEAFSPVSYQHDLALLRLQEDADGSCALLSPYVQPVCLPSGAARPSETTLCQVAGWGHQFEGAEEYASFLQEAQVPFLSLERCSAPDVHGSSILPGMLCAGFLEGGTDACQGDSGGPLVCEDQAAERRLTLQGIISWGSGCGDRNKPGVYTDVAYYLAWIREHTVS
Description: FXIIa competitive inhibition assay, fluorescent substrate Boc-QGR-MCA. It is filed as biochemical. The source says: Cyclic [I7F]MCoFx1 (also referred to as cyclic MCoFx6) was synthesized using solid phase peptide synthesis ([[…]] [SEQ ID NO: 97]). For this inhibitor, Tyr33 was mutated back to serine as per the original mRNA display screen (FIG. 1). Cyclic MCoFx6 was screened using a competitive inhibition assay, with the substrate being changed from a colorimetric substrate (Ac-QRFR-pNA in the data of Tables 7 and 10) to a fluorescent substrate (Boc-QGR-MCA) to allow the assay to be run with a lower concentration of enzyme. The assay was performed as described for Examples 2 and 3, except that the FXIIa concentration was 0.5 nM and the substrate concentration was 50 μM (KM=187 μM).
The new variants were screened using competitive inhibition assays, with the substrate being changed from a colorimetric substrate (Ac-QRFR-pNA in the data of Tables 7 and 10) to a fluorescent substrate (Boc-QGR-MCA) to allow the assay to be run with a lower concentration of enzyme. Assays were performed as described for Examples 2 and 3, except that the FXIIa concentration was 0.5 nM and the substrate concentration was 50 μM (KM=187 μM). […] The effect of amino acid substitutions within loop 2 (Arg12, Arg13), loop 5 (Ala25, Arg27) or loop 6 (Asp34) on the activity of cyclic MCoFx7 against FXIIa was determined (refer to Table 14). […] Additionally, mutating Arg to Glu (reversing the side chain charge) only led to two-fold weaker activity. The adjacent residue Arg13 could also be mutated to Lys with no change in activity. Within loop 5, mutating Ala25 to Lys produced a slight gain in activity, whereas the Ala to Pro mutation led to a slight decrease in activity. Both mutations at Arg27 led to losses in activity in the order of two-fold (His) or 3.2-fold (Gly).
(§1) The activity of acyclic and cyclic MCoFx1-5 and analogues thereof was assessed in competitive inhibition assays, as previously described in Swedberg et al. (2016) J Med Chem, 59: 7287-7292. Human β-FXIIa was obtained from Molecular Innovations, together with human FXa, human FXIa, human α-thrombin, and human plasma kallikrein. Human cationic trypsin and human plasmin were obtained from Sigma-Aldrich, and recombinant human matriptase was sourced from R&D Systems. Recombinant human urokinase (uPA) and recombinant human tissue plasminogen activator (tPA) were expressed in Expi293 cells, as previously described in Li et al. (2019) Chembiochem, 20: 46-50. FXIIa inhibition assays were performed in clear, low-binding 96-well plates using 250 μL (final volume) of assay buffer (0.1 M Tris-HCl pH 8.0, 0.1 M NaCl, 10 mM CaCl2 and 0.005% Triton X-100). Inhibitors were serially diluted and incubated with 10 nM FXIIa at room temperature to reach equilibrium. After adding 100 μM Ac-QRFR-pNA substrate (KM=162 μM), enzymatic activity was measured by monitoring release of the pNA moiety using a TECAN infinite M1000 Pro plate reader (A=405 nm, reading interval, 10 s; assay time course, 7 min). Assays were conducted in three times in duplicate. Substrate kinetic constants (Michaelis-Menten) and inhibition constants (Morrison K) were determined by non-linear regression using Prism 7 (GraphPad). Selectivity assays with off-target proteases were performed in a similar way, except that different concentrations of enzyme and substrate were used, as indicated in Table 16. For assays using a fluorescent substrate (peptide-4-methylcoumaryl-7-amide, MCA), black low-binding 96-well plates were used and activity was measured using a TECAN infinite M1000 pro plate reader (λex 360 nm, λem 460 nm, reading interval, 30 s; assay time course, 5-30 min).

Assay [2] has as its target T2, Human β-FXIIa. Put plainly: FXIIa competitive inhibition assay, colorimetric substrate Ac-QRFR-pNA. It is filed as biochemical. The procedure:
as §1

In the case of `CC[C@H](C)[C@@H]1NC(=O)[C@@H]2CSSC[C@@H]3NC(=O)[C@H](CCCNC(=N)N)NC(=O)CNC(=O)CNC(=O)[C@H](CC(=O)O)NC(=O)[C@H](CO)NC(=O)CNC(=O)[C@H](CO)NC(=O)CNC(=O)[C@@H]4CSSC[C@H](NC(=O)[C@H](CC(=O)O)NC(=O)[C@H](CO)NC(=O)[C@H](CC(=O)O)NC(=O)[C@H](CCCNC(=N)N)NC(=O)[C@H](CCCNC(=N)N)NC(=O)[C@H](CSSC[C@H](NC1=O)C(=O)N[C@@H](C(C)C)C(=O)N[C@@H](Cc1ccccc1)C(=O)N[C@@H](CCCCN)C(=O)N[C@@H](CCCCN)C(=O)N[C@@H](Cc1c[nH]cn1)C(=O)N4)NC(=O)[C@H](C(C)C)NC(=O)[C@H](CC(C)C)NC(=O)[C@H](Cc1ccc(O)cc1)NC(=O)CNC(=O)CNC(=O)[C@H](CS)NC3=O)C(=O)N1CCC[C@H]1C(=O)NCC(=O)N[C@@H](C)C(=O)N2` [MCoFx5 cyclic] (cyclo(DGGRCCGGYLVCRRDSDCPGACICVFKKHCGSGS); disulfide 5-22, 12-24, 18-30), the “affinity for trypsin (in words)” value at bovine trypsin is on record as “Neither aMCoFx5 nor cMCoFx5 showed detectable affinity for trypsin”. Besides, the “KD (nM) Trypsin Cyclic” value on bovine trypsin (Table 8, cyclic form) was “No binding”.

On Human β-FXIIa [1], `CC[C@H](C)[C@@H]1NC(=O)CNC(=O)CNC(=O)[C@H](CC(=O)O)NC(=O)[C@H](CO)NC(=O)CNC(=O)[C@H](CO)NC(=O)CNC(=O)[C@@H]2CSSC[C@@H]3NC(=O)[C@H](CC(=O)O)NC(=O)[C@H](CO)NC(=O)[C@H](CC(=O)O)NC(=O)[C@H](CCCNC(=N)N)NC(=O)[C@H](C(C)C)NC(=O)[C@@H]4CSSC[C@H](NC(=O)[C@H]([C@@H](C)CC)NC(=O)[C@H](CSSC[C@H](NC1=O)C(=O)N1CCC[C@H]1C(=O)N[C@@H](CCCNC(=N)N)C(=O)N[C@@H]([C@@H](C)CC)C(=O)NCC(=O)N[C@@H](CCCNC(=N)N)C(=O)N[C@@H](CC(C)C)C(=O)N4)NC(=O)[C@H](C)NC(=O)CNC(=O)[C@@H]1CCCN1C3=O)C(=O)N[C@@H](CCCNC(=N)N)C(=O)N[C@@H](C)C(=O)N[C@@H]([C@@H](C)O)C(=O)N[C@@H](CCCNC(=N)N)C(=O)N[C@@H](Cc1ccccc1)C(=O)N2` [Cyclic [R12V]MCoFx7] (cyclo(ACICRATRFCGSGSDGGICPRIGRLCVRDSDCPG); disulfide 2-19, 4-26, 10-32) displayed a Ki of 69 ± 5 pM.

As to `CC[C@H](C)[C@@H]1NC(=O)[C@H](CCCNC(=N)N)NC(=O)[C@@H]2CCCN2C(=O)[C@@H](NC(=O)[C@@H](NC(=O)[C@@H](N)CCCNC(=N)N)[C@@H](C)CC)CSSC[C@@H]2NC(=O)[C@H](C)NC(=O)CNC(=O)[C@@H]3CCCN3C(=O)[C@@H]3CSSC[C@@H](C(=O)NCC(=O)O)NC(=O)[C@H](Cc4ccccc4)NC(=O)[C@H](CCCNC(=N)N)NC(=O)[C@H]([C@@H](C)O)NC(=O)[C@H](C)NC(=O)[C@H](CCCNC(=N)N)NC(=O)[C@H](CSSC[C@H](NC(=O)[C@H](CC(C)C)NC(=O)[C@H](CCCNC(=N)N)NC(=O)CNC1=O)C(=O)N[C@@H](CCCNC(=N)N)C(=O)N[C@@H](CCCNC(=N)N)C(=O)N[C@@H](CC(=O)O)C(=O)N[C@@H](CO)C(=O)N[C@@H](CC(=O)O)C(=O)N3)NC(=O)[C@H]([C@@H](C)CC)NC2=O` [SEQ ID NO: 84] (H-RICPRIGRLCRRDSDCPGACICRATRFCG-OH; disulfide 3-20, 10-22, 16-28), affinity at Human β-FXIIa [2] was put at a Ki of 1400 pM.

`CC[C@H](C)[C@@H]1NC(=O)CNC(=O)CNC(=O)[C@H](CC(=O)O)NC(=O)[C@H](CO)NC(=O)CNC(=O)[C@H](CO)NC(=O)CNC(=O)[C@@H]2CSSC[C@@H]3NC(=O)[C@H](CC(=O)O)NC(=O)[C@H](CO)NC(=O)[C@H](CC(=O)O)NC(=O)[C@H](CCCNC(=N)N)NC(=O)[C@H](CCCNC(=N)N)NC(=O)[C@@H]4CSSC[C@H](NC(=O)[C@H]([C@@H](C)CC)NC(=O)[C@H](CSSC[C@H](NC1=O)C(=O)N1CCC[C@H]1C(=O)N[C@@H](CCCNC(=N)N)C(=O)N[C@@H]([C@@H](C)CC)C(=O)NCC(=O)N[C@@H](CCCNC(=N)N)C(=O)N[C@@H](CC(C)C)C(=O)N4)NC(=O)[C@H](C)NC(=O)CNC(=O)[C@@H]1CCCN1C3=O)C(=O)N[C@@H](CCCNC(=N)N)C(=O)N[C@@H](CCCCN)C(=O)N[C@@H]([C@@H](C)O)C(=O)N[C@@H](CCCNC(=N)N)C(=O)N[C@@H](Cc1ccccc1)C(=O)N2` [Cyclic [A25K]MCoFx7] (cyclo(ACICRKTRFCGSGSDGGICPRIGRLCRRDSDCPG); disulfide 2-19, 4-26, 10-32) yielded a Ki at Human β-FXIIa [1] of 46 ± 5 pM.

In turn, `CC[C@H](C)[C@@H]1NC(=O)CNC(=O)CNC(=O)[C@@H]2CCCN2C(=O)[C@H](CO)NC(=O)CNC(=O)[C@H](CO)NC(=O)CNC(=O)[C@@H]2CSSC[C@@H]3NC(=O)[C@H](CC(=O)O)NC(=O)[C@H](CO)NC(=O)[C@H](CC(=O)O)NC(=O)[C@H](CCCNC(=N)N)NC(=O)[C@H](CCCNC(=N)N)NC(=O)[C@@H]4CSSC[C@H](NC(=O)[C@H]([C@@H](C)CC)NC(=O)[C@H](CSSC[C@H](NC1=O)C(=O)N1CCC[C@H]1C(=O)N[C@@H](CCCNC(=N)N)C(=O)N[C@@H]([C@@H](C)CC)C(=O)NCC(=O)N[C@@H](CCCNC(=N)N)C(=O)N[C@@H](CC(C)C)C(=O)N4)NC(=O)[C@H](C)NC(=O)CNC(=O)[C@@H]1CCCN1C3=O)C(=O)N[C@@H](CCCNC(=N)N)C(=O)N[C@@H](C)C(=O)N[C@@H]([C@@H](C)O)C(=O)N[C@@H](CCCNC(=N)N)C(=O)N[C@@H](Cc1ccccc1)C(=O)N2` [Cyclic [D34P]MCoFx7] (cyclo(ACICRATRFCGSGSPGGICPRIGRLCRRDSDCPG); disulfide 2-19, 4-26, 10-32) displayed a Ki at Human β-FXIIa [1] of 91 pM.

In the case of `CC[C@H](C)[C@@H]1NC(=O)[C@@H]2CSSC[C@H](NC(=O)[C@H](CCCNC(=N)N)NC(=O)CNC(=O)CNC(=O)[C@@H](N)CC(=O)O)C(=O)N[C@@H](CS)C(=O)NCC(=O)NCC(=O)N[C@@H](Cc3ccc(O)cc3)C(=O)N[C@@H](CC(C)C)C(=O)N[C@@H](C(C)C)C(=O)N[C@H]3CSSC[C@H](NC1=O)C(=O)N[C@@H](C(C)C)C(=O)N[C@@H](Cc1ccccc1)C(=O)N[C@@H](CCCCN)C(=O)N[C@@H](CCCCN)C(=O)N[C@@H](Cc1c[nH]cn1)C(=O)N[C@H](C(=O)NCC(=O)N[C@@H](CO)C(=O)NCC(=O)N[C@@H](CO)C(=O)O)CSSC[C@H](NC(=O)[C@H](CC(=O)O)NC(=O)[C@H](CO)NC(=O)[C@H](CC(=O)O)NC(=O)[C@H](CCCNC(=N)N)NC(=O)[C@H](CCCNC(=N)N)NC3=O)C(=O)N1CCC[C@H]1C(=O)NCC(=O)N[C@@H](C)C(=O)N2` [MCoFx5 acyclic] (H-DGGRCCGGYLVCRRDSDCPGACICVFKKHCGSGS-OH; disulfide 5-22, 12-24, 18-30), the “affinity for trypsin (in words)” value at bovine trypsin is reported as “Neither aMCoFx5 nor cMCoFx5 showed detectable affinity for trypsin”. In addition, the “KD (nM) Trypsin Acyclic” value at bovine trypsin (Table 8, acyclic form) is given as “No binding”.
